Results: PMC5923120, “Acylhydrazones as Antifungal Agents Targeting the Synthesis of Fungal Sphingolipids” (Antimicrobial Agents and Chemotherapy, 2018)
≈ marks a conversion by molar mass, not a printed value. Where two headings read alike, the source gives them in different places.

What was measured:
in vitro [1] = settings: monkey
Description: A commercially available kit was used to examine permeability through the blood-brain barrier (BBB kit MBT-24; Pharmaco Cell Co. Ltd.). This kit allows us to perform a permeability assay using an in vitro reproduction of the blood-brain barrier using monkey brain. Briefly, in a 12-well plate there is a triple culture, with endothelial cells in the luminal part and perycites and astrocytes in the abluminal side connected by tight junctions. The luminal side of the well represents the blood side, whereas the abluminal side represents the brain side. The integrity of the blood-brain barrier is assessed by the measurement of TEER, which indicates the formation of tight junctions. To have an efficient system, the TEER should be >150 Ω cm^2. The kit is kept frozen at −80°C until it is ready to use. […] After that it takes 3 days for the cells to adjust, and then the plate can be used in 4 days for the experiment. For drug testing, after assessing the TEER, the drugs were added in the chosen medium at the desired concentrations and at different time points. At the end of each time point the TEER was measured to assess if the BBB was still intact. After that the medium was collected and subjected to MS to measure the concentration of the samples in the brain side and calculate the permeability value (Papp).

Candida albicans 3022 = experiment: Synergistic assay (FIC), CA Flu-R; type: cell-based; settings: Candida albicans, 3022; CA Flu-R
Protocol: (§1) Synergistic activity was assayed by calculating the fractional inhibitory index (FIC). Briefly, in a 96-well plate, drug A (D13) was serially diluted from 16 to 0.015 μg/ml (11 dilutions), whereas drug B (either fluconazole, amphotericin B, caspofungin, itraconazole, or voriconazole) was serially diluted from 12 to 0.19 μg/ml for fluconazole, 5 to 0.078 μg/ml for amphotericin B, or 8 to 0.007 μg/ml for caspofungin, itraconazole, or voriconazole (seven dilutions). The FIC was defined as (MIC combined/MIC drug A alone) + (MIC combined/MIC drug B alone). Synergism was categorized with the following scale: strongly synergistic effect, FIC of <0.5; synergistic effect, FIC of <1; additive effect, FIC of 1; no effect, FIC between 1 and 2; antagonistic effect, FIC of >2.

Candida krusei = experiment: Synergistic assay (FIC), CK Flu R1; type: cell-based; settings: Pichia kudriavzevii
Protocol: as §1

[2] = system: Aspergillus fumigatus 293; experiment: Synergistic assay (FIC), AF; type: cell-based
Protocol: as §1

Candida albicans A39 = experiment: Synergistic assay (FIC), CA; type: cell-based
Protocol: as §1

[3] = system: Cryptococcus neoformans H99; experiment: Synergistic assay (FIC), CN; type: cell-based
Protocol: as §1

Candida krusei ATCC 6258 = experiment: Synergistic assay (FIC), CK Flu R2; type: cell-based; settings: Pichia kudriavzevii, ATCC6258
Protocol: as §1

C. neoformans [4] = experiment: In vitro susceptibility testing (MIC80); type: cell-based, Cryptococcus neoformans
Protocol: MICs were determined by following the methods of the Clinical and Laboratory Standards Institute (CLSI), with modifications. […] The compounds were serially diluted from 32 to 0.03 μg/ml in a 96-well plate. The inoculum was prepared as described in CLSI protocol M27A3 guidelines ([39]). […] The MICs were determined as the lowest concentration of the compound that inhibited 80% of growth compared to the control.

A549 = experiment: In vitro toxicity (MTT), A549; type: cell-based; settings: Homo sapiens, cytotoxicity
Protocol: (§2) The murine macrophage cell line J774 and human cancer cell lines A549 and HepG2 were maintained in DMEM containing 10% fetal bovine serum (FBS) and 1% penicillin-streptomycin. At passage 7, 10^5 cells/well in DMEM containing 10% FBS were transferred into 96-well plates and cultured for 14 h for the cells to adhere to the wells. The compounds were added to the cells at concentrations ranging from 0.03 to 128 μg/ml. The wells without the compound served as controls. […] After 24 or 48 h, the supernatant was removed and 50 μl of 5-mg/ml 3-(4,5-dimethylthiazol-2-yl)-2,5-diphenyltetrazoliumbromide (MTT) solution in phosphate-buffered saline (PBS) was added to each well. The plates were incubated for an additional 4 h. The formazan crystal formed inside the cell was dissolved by adding 50 μl of dimethyl sulfoxide (DMSO). The optical density was measured at 570 nm.

HepG2 = experiment: In vitro toxicity (MTT), HepG2; type: cell-based; settings: Homo sapiens, cytotoxicity
Protocol: as §2

J774 = experiment: In vitro toxicity (MTT), J774; type: cell-based, murine; settings: Mus musculus, cytotoxicity
Protocol: as §2

C. neoformans [5] = experiment: In vitro killing assay; settings: for K100*: minimum concentration that kills 100% of C. neoformans cells in 48 h
Protocol: C. neoformans cells from a culture grown overnight were washed in PBS and resuspended in YNB buffered with HEPES at pH 7.4. The cells were counted, and 2 × 10^4 cells were incubated with different concentrations of the drugs in a final volume of 10 ml with a final concentration of 0.5% DMSO. The tubes were then incubated at 37°C with 5% CO2 on a rotary shaker at 200 rpm. Aliquots were taken at the time points indicated and diluted, and 100-µl portions were plated onto YPD plates.

Caco-2 permeability = settings: human
Protocol: (§3) The Caco-2 permeability studies were performed as follows. (i) For the preparation of Caco cells, 50-μl and 25-ml volumes of cell culture medium were added to each well of the Transwell insert and reservoir, respectively. The HTS Transwell plates then were incubated at 37°C, 5% CO2 for 1 h before cell seeding. […] (ii) For the preparation of stock solutions, 10 mM stock solutions of test compounds were prepared in DMSO. The stock solutions of positive controls were prepared in DMSO at a concentration of 10 mM. Digoxin and propranolol were used as control compounds in this assay. (iii) For the assessment of cell monolayer integrity, medium was removed from the reservoir and each Transwell insert and replaced with prewarmed fresh culture medium. Transepithelial electrical resistance (TEER) across the monolayer was measured using a Millicell epithelial volt-Ohm measuring system (Millipore, USA). The plate was returned to the incubator once the measurement was done. The TEER value was calculated according to the following equation: TEER measurement (ohms) × area of membrane (cm^2) = TEER value (ohm · cm^2). The TEER value should be greater than 230 Ω · cm^2, which indicates a well-qualified Caco-2 monolayer. (iv) The assay was performed as follows. The Caco-2 plate was removed from the incubator and washed twice with prewarmed Hanks' balanced salt solution (HBSS; with 10 mM HEPES, pH 7.4) and then incubated at 37°C for 30 min. The stock solutions of control compounds were diluted in DMSO to get 1 mM solutions and then diluted with HBSS (10 mM HEPES, pH 7.4) to get 5 μM working solutions. The stock solutions of the test compounds were diluted in DMSO to get 1 mM solutions and then diluted with HBSS (10 mM HEPES, pH 7.4) to get 5 μM working solutions. The final concentration of DMSO in the incubation system was 0.5%. To determine the rate of drug transport in the apical to basolateral direction, 75 μl of 5 μM working solution of test compound was added to the Transwell insert (apical compartment), and the wells in the receiver plate (basolateral compartment) were filled with 235 μl of HBSS (10 mM HEPES, pH 7.4). To determine the rate of drug transport in the basolateral to apical direction, 235 μl of 5 μM working solution of test compound was added to the receiver plate wells (basolateral compartment), and then the Transwell inserts (apical compartment) were filled with 75 μl of HBSS (10 mM HEPES, pH 7.4). Time zero samples were prepared by transferring 50 μl of 5 μM working solution to wells of the 96-deep-well plate, followed by the addition of 200 μl cold acetonitrile or methanol containing appropriate IS. The plates were incubated at 37°C for 2 h. At the end of the incubation, 50-μl samples from donor sides (apical compartment for AP→BL flux and basolateral compartment for BL→AP) and receiver sides (basolateral compartment for AP→BL flux and apical compartment for BL→AP) were transferred to wells of a new 96-well plate, followed by the addition of 4 volumes of cold acetonitrile or methanol containing appropriate IS. […] An aliquot of 100 μl of the supernatant was mixed with an appropriate volume of ultrapure water before LC-MS/MS analysis. To determine the Lucifer yellow leakage after a 2-h transport period, a stock solution of Lucifer yellow was prepared in ultrapure water and diluted with HBSS (10 mM HEPES, pH 7.4) to reach a final concentration of 100 μM. One hundred microliters of the Lucifer yellow solution was added to each Transwell insert (apical compartment), followed by filling the wells in the receiver plate (basolateral compartment) with 300 μl of HBSS (10 mM HEPES, pH 7.4). The plates were incubated at 37°C for 30 min, and 80-μl samples were removed directly from the apical and basolateral wells (using the basolateral access holes) and transferred to wells of new 96-well plates.

Aspergillus fumigatus = experiment: Mouse model of invasive pulmonary aspergillosis; type: in vivo, mice; settings: oral 20 mg/kg/day
Protocol: For survival study, 8-week-old CBA/J (Envigo) male mice were used. They were divided into sets of 10 mice for each treatment or control group. The day prior to infection, the mice were immunosuppressed by using triamcinolone acetonide (1 mg/mouse) subcutaneously ([40]). On day 0, mice were infected intranasally with 20 μl of a suspension containing 2 × 10^4 conidia of A. fumigatus strain Af293 and were treated through gavage with 20 mg/kg/day of BHBM, D13, or voriconazole (as a drug control) in a final volume of 100 μl of 30% PEG in saline buffer. The untreated control group mice received 100 μl of 30% PEG in saline buffer. Mice were fed ad libitum and were given 50% grapefruit juice in place of normal drinking water to avoid the liver metabolism of the drugs ([41]). Mice were monitored every day for discomfort and sacrificed subsequently.

C. albicans = experiment: Mouse model of invasive candidiasis; type: in vivo, mice; settings: oral gavage 20 mg/kg/day
C. neoformans [6] = experiment: Mouse model of cryptococcosis; type: in vivo, mice
in vitro [7] = settings: human
Protocol: as §3

[8] = Cryptococcus neoformans, ChemBridge compounds, Supplementary Table 1, read-out: MIC80
[9] = lowest concentration inhibiting 80% of growth

## Cn1c(=O)c2c(ncn2C)n(C)c1=O [Caffeine, reference compound]
In vitro [1]
  Papp at 5 min: 20 ×10⁻⁶ cm/s
  Papp at 15 min: 25 ×10⁻⁶ cm/s
  Papp at 30 min: 25 ×10⁻⁶ cm/s

## CCC(C)n1ncn(-c2ccc(N3CCN(c4ccc(OCC5COC(Cn6cncn6)(c6ccc(Cl)cc6Cl)O5)cc4)CC3)cc2)c1=O (stereo not shown) [Itra, itraconazole]
Candida albicans 3022
  MIC: 2 µg/mL
Candida krusei
  MIC: 1 µg/mL
[2]
  MIC: 0.25 µg/mL
Candida albicans A39
  MIC: 0.06 µg/mL
[3]
  MIC: 0.06 µg/mL
Candida krusei ATCC 6258
  MIC: 1 µg/mL

## O=C(N/N=C/c1cc(Br)ccc1O)c1cccc(Br)c1 [D2]
C. neoformans [4]; [8]
  MIC80: 0.25 µg/mL (≈ 0.628 µM)
C. neoformans [4]; [9]
  MIC80: 0.25 µg/mL (≈ 0.628 µM)
A549
  IC50: 16 µg/mL (≈ 40.2 µM)
HepG2
  IC50: 16 µg/mL (≈ 40.2 µM)
J774
  IC50: 16 µg/mL (≈ 40.2 µM)
C. neoformans [5]
  K100*: 0.12 µg/mL

## CC[C@H](C)C[C@H](C)CCCCCCCCC(=O)N[C@H]1C[C@@H](O)[C@@H](NCCN)NC(=O)[C@@H]2[C@@H](O)CCN2C(=O)[C@H]([C@H](O)CCN)NC(=O)[C@H]([C@H](O)[C@@H](O)c2ccc(O)cc2)NC(=O)[C@@H]2C[C@@H](O)CN2C(=O)[C@H]([C@@H](C)O)NC1=O [Caspo, capsofungin]
Candida albicans 3022
  MIC: 0.06 µg/mL
Candida krusei
  MIC: 1 µg/mL
Candida albicans A39
  MIC: 0.12 µg/mL
Candida krusei ATCC 6258
  MIC: 1 µg/mL

## C[C@H]1O[C@@H](O[C@H]2[C@@H](O)C[C@H](O[C@H]3[C@@H](O)C[C@H](O[C@H]4CC[C@@]5(C)[C@H](CC[C@@H]6[C@@H]5C[C@@H](O)[C@]5(C)[C@@H](C7=CC(=O)OC7)CC[C@]65O)C4)O[C@@H]3C)O[C@@H]2C)C[C@H](O)[C@@H]1O [Digoxin, reference compound]
Caco-2 permeability; Caco-2, pH 7.4
  Papp A→B at 2 h, 5 μM: 0.61 ×10⁻⁶ cm/s
  Papp B→A at 2 h, 5 μM: 20.2 ×10⁻⁶ cm/s
Caco-2 permeability; Caco-2, pH 7.4, Efflux ratio
  efflux ratio at 2 h, 5 μM: 33.2
Caco-2 permeability; Caco-2, pH 7.4, Recovery AP→BL
  recovery at 2 h, 5 μM: 82.7%
Caco-2 permeability; Caco-2, pH 7.4, Recovery BL→AP
  recovery at 2 h, 5 μM: 95.6%

## C[C@@H](c1ncncc1F)[C@](O)(Cn1cncn1)c1ccc(F)cc1F [voriconazole, reference compound]
[2]
  MIC: 1 µg/mL
Aspergillus fumigatus; at the endpoint, data not shown
  lung fungal burden (CFU) of surviving mice: showed evidence of colonies
Aspergillus fumigatus; immunosuppressed mice, after 15 days
  mice that survived: 40%
[3]
  MIC: 4 µg/mL

## OC(Cn1cncn1)(Cn1cncn1)c1ccc(F)cc1F [fluconazole]
C. albicans
  time within which mice died: ≤ 12 days
Candida albicans 3022
  MIC: > 16 µg/mL
Candida krusei
  MIC: 16 µg/mL
[2]
  MIC: > 10 µg/mL
C. neoformans [6]; i.p. 1.2 mg/kg/day, treatment immediately after intranasal infection, 40 days
  mice that survived: 60%
C. neoformans [6]; i.p. 1.2 mg/kg/day, treatment started 5 days after infection
  mice that survived until the end of the experiment: 20%
C. neoformans [6]; oral 20 mg/kg/day starting the day of infection
  mice that survived until the end of the experiment: 20%
C. neoformans [6]; oral 20 mg/kg/day, 32 days posttreatment, data not shown
  CFU in brains and lungs: numerous colonies in the lungs and brain
Candida albicans A39
  MIC: 2.5 µg/mL
[3]
  MIC: 2.5 µg/mL
Candida krusei ATCC 6258
  MIC: > 16 µg/mL

## C[C@@H]1[C@H](O)[C@@H](C)/C=C/C=C/C=C/C=C/C=C/C=C/C=C/[C@H](O[C@@H]2O[C@H](C)[C@@H](O)[C@H](N)[C@@H]2O)C[C@@H]2O[C@](O)(C[C@@H](O)C[C@@H](O)[C@H](O)CC[C@@H](O)C[C@@H](O)CC(=O)O[C@H]1C)C[C@H](O)[C@H]2C(=O)O [AB, amphotericin B]
[3]
  MIC: 0.25 µg/mL

## O=C(N/N=C/c1cc(Br)ccc1O)c1cc(Br)cc(Br)c1O [D17]
C. neoformans [4]; [8]
  MIC80: 0.5 µg/mL (≈ 1.01 µM)
C. neoformans [4]; [9]
  MIC80: 0.5 µg/mL (≈ 1.01 µM)
A549
  IC50: 16 µg/mL (≈ 32.5 µM)
HepG2
  IC50: 16 µg/mL (≈ 32.5 µM)
J774
  IC50: 16 µg/mL (≈ 32.5 µM)
C. neoformans [5]
  K100*: 0.5 µg/mL
C. neoformans [5]; time-kill assay
  time to kill C. neoformans: 6 h

## CC(C)NCC(O)COc1cccc2ccccc12 (stereo not shown) [Propranolol]
In vitro [7]; Caco-2, pH 7.4
  Papp A→B at 2 h, 5 μM: 34.4 ×10⁻⁶ cm/s
  Papp B→A at 2 h, 5 μM: 19.5 ×10⁻⁶ cm/s
  efflux ratio at 2 h, 5 μM: 0.57
In vitro [7]; Caco-2, pH 7.4, Recovery AP→BL
  recovery at 2 h, 5 μM: 90.7%
In vitro [7]; Caco-2, pH 7.4, Recovery BL→AP
  recovery at 2 h, 5 μM: 95.5%
